Assay results reported in patent US9511019B2, “Pharmaceutical compositions for treating IBD” (NORDIC PHARMA, priority 2009, dated 2016).

Test system: TNBS colitis
Experiment: TNBS colitis in mice, macroscopic lesions by Wallace criteria
Assay type: in vivo, C57b16 mice
Conditions: for Wallace score (macroscopic lesions, scale 0 to 10): TNBS colitic mice, daily intrarectal administration from 3 days before to 4 days after induction, 5-ASA 0.5 mg, PMSB 2.34 mg/kg/day, untreated control 3.4; for action percentage in comparison to the Wallace score of untreated control: Wallace score 3.4 = 0% action, score 0 = 100% action
Experimental: Induction of TNBS Colitis and Evaluation of Macroscopic Lesions in the Colitis after Administration of 5-ASA, PMSB, and Synergistic Combination of 5-ASA and PMSB.
Animal experiments were performed in accredited establishments according to governmental guidelines.
Colitis induction was conducted on C57b16 mice aged of 6 weeks old. They were anesthetized for 90-120 minutes before they received intrarectal administration of TNBS (trinitrobenzene sulphonic acid) (40 μl, 150 mg/kg) dissolved in a 1:1 mixture of 0.9% NaCl with 100% ethanol. Control mice received a 1:1 mixture of 0.9% NaCl with 100% ethanol or a saline solution using the same technique. Animals were sacrificed 4 days after TNBS administration. The anti-inflammatory effect of 5-ASA and steroid was evaluated by daily administration of these compounds by intrarectal route in a final volume of 50 μl, starting 3 days before the colitis induction and during all the experiment (4 days after colitis induction). Dosage amount of 5-ASA was 0.5 mg (50 μl of 1 g/100 ml stock), 65 mM and the dosage amount of PMSB was 2.34 mg/kg/day.
The macroscopic assessments of colitis were performed blindly by two investigators. The colon of each mouse was examined under a dissecting microscope (magnification, ×5), to evaluate the macroscopic lesions according to the Wallace criteria. The score rates macroscopic lesions on a scale of from 0 to 10 based on the features reflecting inflammation, such as hyperaemia, thickening of the bowel, and extent of ulceration. The Wallace scale is defined as follows. A score of 0 represents an absence of inflammation, a score of 1, a hyperaemia without ulcerations, a score of 2 a hyperaemia with a thickening of the mucosa without ulcerations, a score of 3, one ulceration without thickening of the colonic wall, a score of 4, two or more of ulcerative or inflammatory sites, a score of 5, two or more ulcerative and inflammatory sites with an extent of more than 1 cm, and for a score of from 6 to 10, an ulcerative or inflammatory site of growing size of from 2 to 6 cm.
A score of Wallace of 3.4 thus indicates an action of 0% and a score of 0, (no lesion) indicates 100% action. […] The action that the active ingredients would be expected to have in combination was calculated according to the Colby formula, and a comparison in the actions was then observed.
The Colby formula is E=X+Y−(XxY)/100, wherein E is the expected degree of action, expressed in %, when the active ingredients 5-ASA and prednisolone PMSB are used in combination. […] It is the degree of action converted from the Wallace score obtained for the A group. […] It is the degree of action converted from the Wallace score obtained for the P group.

| SMILES | Wallace score (macroscopic lesions, scale 0 to 10) | action percentage in comparison to the Wallace score of untreated control |
| --- | --- | --- |
| Nc1ccc(O)c(C(=O)O)c1 [Formulation 5-ASA, 5-aminosalicylic acid] | 1.25 | 63% |
| C[C@]12C=CC(=O)C=C1CC[C@@H]1[C@@H]2[C@@H](O)C[C@@]2(C)[C@H]1CC[C@]2(O)C(=O)COC(=O)c1cccc(S(=O)(=O)O)c1 [PMSB, prednisolone metasulfobenzoate] | 1.83 | 46% |
